Experimental data: patent publication US6906205B2, “Spiro and dispiro 1,2,4-trioxolane antimalarials” (Medicines for Malaria Venture MMV, priority 2002, dated 2005)
Converted amounts (≈) assume the structure as drawn.

The molecules below were run on P. falciparum K1 strain (Thailand resistant to chloroquine) (assay: semiautomated microdilution assay, [3H]-hypoxanthine incorporation, K1 strain). Details: K1 strain, 72 h incubation.
Format: cell-based, Plasmodium falciparum
Outline: (§1)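 Compounds were tested against intraerythrocytic parasites taken from asynchronous stock cultures, using semiautomated microdilution. IC50 values were estimated by logit regression analysis.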

Q: How did the “IC50 (ng/ml) K1” value turn out when CCOC(=O)C1(C(=O)OCC)COC2(CCC3(CC2)OOC2(O3)C3CC4CC(C3)CC2C4)OC1 (centres unmarked) [OZ120] was run?
A: Its value is 1.2 ng/mL (≈ 2.5 nM).

Q: Clc1ccc(C2CCC3(CC2)OOC2(O3)C3CC4CC(C3)CC2C4)cc1 (centres unmarked) [OZ47] was tested. Which “IC50 (ng/ml) K1” value did it give?
A: Its value is 7.5 ng/mL (≈ 20 nM).

Q: NC(=O)C[C@H]1CC[C@]2(CC1)OOC1(O2)C2CC3CC(C2)CC1C3 (some centres unmarked) [OZ243] was tested. Which “IC50 (ng/ml) K1” value did it give?
A: The value was 0.91 ng/mL (≈ 2.83 nM).

Q: For O=C(OC1CCC2(CC1)OOC1(O2)C2CC3CC(C2)CC1C3)c1ccccc1 (centres unmarked) [OZ74], which “IC50 (ng/ml) K1” value is on record?
A: The value was 2.3 ng/mL (≈ 5.98 nM).

Q: How did the “IC50 (ng/ml) K1” value turn out when O=S(=O)(Cc1ccccc1)N1CCC2(CC1)OOC1(O2)C2CC3CC(C2)CC1C3 (centres unmarked) [OZ131] was run?
A: The value was 1.7 ng/mL (≈ 4.05 nM).

Q: CC(=O)Nc1ccc(S(=O)(=O)N2CCC3(CC2)OOC2(O3)C3CC4CC(C3)CC2C4)cc1 (centres unmarked) [OZ104] was tested. Which “IC50 (ng/ml) K1” value did it give?
A: The value was 1.4 ng/mL (≈ 3.03 nM).

What follows are molecules tested on P. falciparum NF54 strain (sensitive to standard antimalarials) (assay: semiautomated microdilution assay, [3H]-hypoxanthine incorporation, NF54 strain). Details: NF54 strain, 72 h incubation.
Format: cell-based, Plasmodium falciparum
Outline: as §1

Q: How did the “IC50 (ng/ml) NF54” value turn out when CCOC(=O)C1(C(=O)OCC)COC2(CCC3(CC2)OOC2(O3)C3CC4CC(C3)CC2C4)OC1 (centres unmarked) [OZ120] was run?
A: The value was 0.59 ng/mL (≈ 1.23 nM).

Q: For Clc1ccc(C2CCC3(CC2)OOC2(O3)C3CC4CC(C3)CC2C4)cc1 (centres unmarked) [OZ47], which “IC50 (ng/ml) NF54” value is on record?
A: The value was 7.4 ng/mL (≈ 19.7 nM).

Q: How did the “IC50 (ng/ml) NF54” value turn out when NC(=O)C[C@H]1CC[C@]2(CC1)OOC1(O2)C2CC3CC(C2)CC1C3 (some centres unmarked) [OZ243] was run?
A: Its value is 1.1 ng/mL (≈ 3.42 nM).

Q: O=C(OC1CCC2(CC1)OOC1(O2)C2CC3CC(C2)CC1C3)c1ccccc1 (centres unmarked) [OZ74] was tested. Which “IC50 (ng/ml) NF54” value did it give?
A: Its value is 3.5 ng/mL (≈ 9.1 nM).

Q: Which “IC50 (ng/ml) NF54” value does the source give for O=S(=O)(Cc1ccccc1)N1CCC2(CC1)OOC1(O2)C2CC3CC(C2)CC1C3 (centres unmarked) [OZ131] here?
A: The value was 4.1 ng/mL (≈ 9.77 nM).

Q: How did the “IC50 (ng/ml) NF54” value turn out when CC(=O)Nc1ccc(S(=O)(=O)N2CCC3(CC2)OOC2(O3)C3CC4CC(C3)CC2C4)cc1 (centres unmarked) [OZ104] was run?
A: The value was 0.50 ng/mL (≈ 1.08 nM).

The molecules below were run on ANKA strain of P. berghei (assay: single dose STI in vivo screen in infected mice). Details: percent reduction in parasitemia day 3 post-infection; single 10 mg/kg po in 3% ethanol and 7% Tween 80; mice.
Parameters: species or system Plasmodium berghei
Outline: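 Groups of 3-5 Moro SPF or NMRI mice infected with the ANKA strain of P. berghei received a single dose of trioxolane on day one post-infection. The compound was given in 3% ethanol and 7% Tween 80 or in SSV (0.5% w/v CMC, 0.5% v/v benzyl alcohol, 0.4% v/v Tween 80, 0.9% w/v sodium chloride in water). Antimalarial activity was scored as percent reduction in parasitemia on day three and as survival time versus untreated controls. Survival to day 30 counted as cure.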

Q: For CCOC(=O)C1(C(=O)OCC)COC2(CCC3(CC2)OOC2(O3)C3CC4CC(C3)CC2C4)OC1 (centres unmarked) [OZ120], which “Activity (%) po” value is on record?
A: Its value is 33%.

Q: With Clc1ccc(C2CCC3(CC2)OOC2(O3)C3CC4CC(C3)CC2C4)cc1 (centres unmarked) [OZ47] as the molecule, how does the “Activity (%) po” value read?
A: The value was 99.98%.

Q: NC(=O)C[C@H]1CC[C@]2(CC1)OOC1(O2)C2CC3CC(C2)CC1C3 (some centres unmarked) [OZ243] was tested. Which “Activity (%) po” value did it give?
A: The value was 87%.

Q: Which “Activity (%) po” value does the source give for O=C(OC1CCC2(CC1)OOC1(O2)C2CC3CC(C2)CC1C3)c1ccccc1 (centres unmarked) [OZ74] here?
A: Its value is 63%.

Q: O=S(=O)(Cc1ccccc1)N1CCC2(CC1)OOC1(O2)C2CC3CC(C2)CC1C3 (centres unmarked) [OZ131] was tested. Which “Activity (%) po” value did it give?
A: Its value is 21%.

Q: With CC(=O)Nc1ccc(S(=O)(=O)N2CCC3(CC2)OOC2(O3)C3CC4CC(C3)CC2C4)cc1 (centres unmarked) [OZ104] as the molecule, how does the “Activity (%) po” value read?
A: Its value is 56%.

Same assay, conditions: percent reduction in parasitemia day 3 post-infection; single 10 mg/kg sc in 3% ethanol and 7% Tween 80; mice

Q: How did the “Activity (%) sc” value turn out when CCOC(=O)C1(C(=O)OCC)COC2(CCC3(CC2)OOC2(O3)C3CC4CC(C3)CC2C4)OC1 (centres unmarked) [OZ120] was run?
A: Its value is 96%.

Q: With Clc1ccc(C2CCC3(CC2)OOC2(O3)C3CC4CC(C3)CC2C4)cc1 (centres unmarked) [OZ47] as the molecule, how does the “Activity (%) sc” value read?
A: Its value is 99%.

Q: Which “Activity (%) sc” value does the source give for NC(=O)C[C@H]1CC[C@]2(CC1)OOC1(O2)C2CC3CC(C2)CC1C3 (some centres unmarked) [OZ243] here?
A: Its value is 70%.

Q: O=C(OC1CCC2(CC1)OOC1(O2)C2CC3CC(C2)CC1C3)c1ccccc1 (centres unmarked) [OZ74] was tested. Which “Activity (%) sc” value did it give?
A: Its value is 99.97%.

Q: For O=S(=O)(Cc1ccccc1)N1CCC2(CC1)OOC1(O2)C2CC3CC(C2)CC1C3 (centres unmarked) [OZ131], which “Activity (%) sc” value is on record?
A: Its value is 90%.

Q: How did the “Activity (%) sc” value turn out when CC(=O)Nc1ccc(S(=O)(=O)N2CCC3(CC2)OOC2(O3)C3CC4CC(C3)CC2C4)cc1 (centres unmarked) [OZ104] was run?
A: The value was 99.98%.

Same assay, conditions: percent reduction in parasitemia day 3 post-infection; single po dose in standard suspending vehicle (SSV); mice

Q: CCOC(=O)C1(C(=O)OCC)COC2(CCC3(CC2)OOC2(O3)C3CC4CC(C3)CC2C4)OC1 (centres unmarked) [OZ120] was tested. Which “Activity (%) SSVpo” value did it give?
A: Its value is 8%.

Q: With NC(=O)C[C@H]1CC[C@]2(CC1)OOC1(O2)C2CC3CC(C2)CC1C3 (some centres unmarked) [OZ243] as the molecule, how does the “Activity (%) SSVpo” value read?
A: The value was 97%.

Q: How did the “Activity (%) SSVpo” value turn out when O=S(=O)(Cc1ccccc1)N1CCC2(CC1)OOC1(O2)C2CC3CC(C2)CC1C3 (centres unmarked) [OZ131] was run?
A: The value was 41%.

Q: For CC(=O)Nc1ccc(S(=O)(=O)N2CCC3(CC2)OOC2(O3)C3CC4CC(C3)CC2C4)cc1 (centres unmarked) [OZ104], which “Activity (%) SSVpo” value is on record?
A: The value was 0%.

Same assay, conditions: single 10 mg/kg po in 3% ethanol and 7% Tween 80; untreated control 5.6 ± 0.3

Q: With CCOC(=O)C1(C(=O)OCC)COC2(CCC3(CC2)OOC2(O3)C3CC4CC(C3)CC2C4)OC1 (centres unmarked) [OZ120] as the molecule, how does the “Survival (days) po” value read?
A: Its value is 6.0 days.

Q: Clc1ccc(C2CCC3(CC2)OOC2(O3)C3CC4CC(C3)CC2C4)cc1 (centres unmarked) [OZ47] was tested. Which “Survival (days) po” value did it give?
A: The value was 12.7 days.

Q: Which “Survival (days) po” value does the source give for NC(=O)C[C@H]1CC[C@]2(CC1)OOC1(O2)C2CC3CC(C2)CC1C3 (some centres unmarked) [OZ243] here?
A: The value was 7.3 days.

Q: O=C(OC1CCC2(CC1)OOC1(O2)C2CC3CC(C2)CC1C3)c1ccccc1 (centres unmarked) [OZ74] was tested. Which “Survival (days) po” value did it give?
A: Its value is 6.3 days.

Q: With O=S(=O)(Cc1ccccc1)N1CCC2(CC1)OOC1(O2)C2CC3CC(C2)CC1C3 (centres unmarked) [OZ131] as the molecule, how does the “Survival (days) po” value read?
A: Its value is 5.7 days.

Q: With CC(=O)Nc1ccc(S(=O)(=O)N2CCC3(CC2)OOC2(O3)C3CC4CC(C3)CC2C4)cc1 (centres unmarked) [OZ104] as the molecule, how does the “Survival (days) po” value read?
A: The value was 6.3 days.

Same assay, conditions: single 10 mg/kg sc in 3% ethanol and 7% Tween 80; untreated control 5.6 ± 0.3

Q: With CCOC(=O)C1(C(=O)OCC)COC2(CCC3(CC2)OOC2(O3)C3CC4CC(C3)CC2C4)OC1 (centres unmarked) [OZ120] as the molecule, how does the “Survival (days) sc” value read?
A: Its value is 8.0 days.

Q: Clc1ccc(C2CCC3(CC2)OOC2(O3)C3CC4CC(C3)CC2C4)cc1 (centres unmarked) [OZ47] was tested. Which “Survival (days) sc” value did it give?
A: The value was 8.0 days.

Q: For NC(=O)C[C@H]1CC[C@]2(CC1)OOC1(O2)C2CC3CC(C2)CC1C3 (some centres unmarked) [OZ243], which “Survival (days) sc” value is on record?
A: The value was 6.3 days.

Q: With O=C(OC1CCC2(CC1)OOC1(O2)C2CC3CC(C2)CC1C3)c1ccccc1 (centres unmarked) [OZ74] as the molecule, how does the “Survival (days) sc” value read?
A: The value was 10.0 days.

Q: For O=S(=O)(Cc1ccccc1)N1CCC2(CC1)OOC1(O2)C2CC3CC(C2)CC1C3 (centres unmarked) [OZ131], which “Survival (days) sc” value is on record?
A: Its value is 8.0 days.

Q: With CC(=O)Nc1ccc(S(=O)(=O)N2CCC3(CC2)OOC2(O3)C3CC4CC(C3)CC2C4)cc1 (centres unmarked) [OZ104] as the molecule, how does the “Survival (days) sc” value read?
A: The value was 12.0 days.

Same assay, conditions: single po dose in SSV; untreated control 5.6 ± 0.3

Q: Which “Survival (days) SSVpo” value does the source give for CCOC(=O)C1(C(=O)OCC)COC2(CCC3(CC2)OOC2(O3)C3CC4CC(C3)CC2C4)OC1 (centres unmarked) [OZ120] here?
A: The value was 5.7 days.

Q: NC(=O)C[C@H]1CC[C@]2(CC1)OOC1(O2)C2CC3CC(C2)CC1C3 (some centres unmarked) [OZ243] was tested. Which “Survival (days) SSVpo” value did it give?
A: The value was 8.7 days.

Q: Which “Survival (days) SSVpo” value does the source give for O=S(=O)(Cc1ccccc1)N1CCC2(CC1)OOC1(O2)C2CC3CC(C2)CC1C3 (centres unmarked) [OZ131] here?
A: The value was 6.0 days.

Q: For CC(=O)Nc1ccc(S(=O)(=O)N2CCC3(CC2)OOC2(O3)C3CC4CC(C3)CC2C4)cc1 (centres unmarked) [OZ104], which “Survival (days) SSVpo” value is on record?
A: The value was 5.7 days.
